Reference: PubChem BioAssay AID1963851 (Molecular Pharmacology Branch, DTP, NCI, 2024)

System: 188146-221-R-J1-PDC complex spheroid viability
Test: Anticancer human tumor 188146-221-R-J1-PDC patient-derived colon adenocarcinoma cell line growth inhibition [POLQ]
Conditions: for IC50: curve of first compound; for viability, T/C: stronger effect = lower value; active = viability on the fitted dose curve at most 10% of control; inactive = the rest
Summary of the method: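 Three-cell-type spheroids modelling solid tumor plus stroma served as the readout system; POL inhibitors were tested individually and in combination, concentration ranges set by clinical Cmax where known.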

[1] = second compound 0.0316 µM, first compound 0.0316 µM
[2] = second compound 0.0316 µM, first compound 0.1 µM
[3] = second compound 0.0316 µM, first compound 0.316 µM
[4] = second compound 0.0316 µM, first compound 1 µM
[5] = second compound 0.1 µM, first compound 0.0316 µM
[6] = second compound 0.1 µM, first compound 0.1 µM
[7] = second compound 0.1 µM, first compound 0.316 µM
[8] = second compound 0.1 µM, first compound 1 µM
[9] = second compound 0.316 µM, first compound 0.0316 µM
[10] = second compound 0.316 µM, first compound 0.1 µM
[11] = second compound 0.316 µM, first compound 0.316 µM
[12] = second compound 0.316 µM, first compound 1 µM
[13] = second compound 1 µM, first compound 0.0316 µM
[14] = second compound 1 µM, first compound 0.1 µM
[15] = second compound 1 µM, first compound 0.316 µM
[16] = second compound 1 µM, first compound 1 µM
[17] = second compound 3.16 µM, first compound 0.0316 µM
[18] = second compound 3.16 µM, first compound 0.1 µM
[19] = second compound 3.16 µM, first compound 0.316 µM
[20] = second compound 3.16 µM, first compound 1 µM
[21] = second compound 10 µM, first compound 0.0316 µM
[22] = second compound 10 µM, first compound 0.1 µM
[23] = second compound 10 µM, first compound 0.316 µM
[24] = second compound 10 µM, first compound 1 µM
[25] = second compound 0.0316 µM, first compound 3.16 µM
[26] = second compound 0.0316 µM, first compound 10 µM
[27] = second compound 0.1 µM, first compound 3.16 µM
[28] = second compound 0.1 µM, first compound 10 µM
[29] = second compound 0.316 µM, first compound 3.16 µM
[30] = second compound 0.316 µM, first compound 10 µM
[31] = second compound 1 µM, first compound 3.16 µM
[32] = second compound 1 µM, first compound 10 µM
[33] = second compound 3.16 µM, first compound 3.16 µM
[34] = second compound 3.16 µM, first compound 10 µM
[35] = second compound 10 µM, first compound 3.16 µM
[36] = second compound 10 µM, first compound 10 µM
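Note: spheroids exposed to compounds for seven days.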
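Throughout, for viability, T/C: 100% = DMSO vehicle control viability.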

CCc1c2c(nc3ccc(O)cc13)-c1cc3c(c(=O)n1C2)COC(=O)[C@]3(O)CC + Nc1ccc(C#CCN(C(=O)Cc2ncc(C(F)(F)F)cc2C(F)(F)F)c2ccc(F)cc2)nn1
active: viability, T/C [4] 7.87% | viability, T/C [12] 8.23%
0.0232 µM: IC50 (second compound 1 µM) | IC50 (second compound 10 µM)
0.0265 µM: IC50 (second compound 3.16 µM)
0.0251 µM: IC50 (second compound 0.1 µM)
0.0207 µM: IC50 (second compound 0.316 µM)
inactive: viability, T/C (second compound 0.0316 µM, first compound 0.00316 µM) 94.7% | viability, T/C (second compound 0.0316 µM, first compound 0.01 µM) 69.8% | viability, T/C [1] 35% | viability, T/C [2] 20.9% | viability, T/C [3] 12.5% | viability, T/C (second compound 0.1 µM, first compound 0.00316 µM) 101% | viability, T/C (second compound 0.1 µM, first compound 0.01 µM) 81.1% | viability, T/C [5] 42.1% | viability, T/C [6] 18.5% | viability, T/C [7] 13.3% | viability, T/C [8] 10.1% | viability, T/C (second compound 0.316 µM, first compound 0.00316 µM) 100% | viability, T/C (second compound 0.316 µM, first compound 0.01 µM) 73.1% | viability, T/C [9] 35.9% | viability, T/C [10] 18.3% | viability, T/C [11] 12.4% | viability, T/C (second compound 1 µM, first compound 0.00316 µM) 88.9% | viability, T/C (second compound 1 µM, first compound 0.01 µM) 77.8% | viability, T/C [13] 37.7% | viability, T/C [14] 22.3% | viability, T/C [15] 13.7% | viability, T/C [16] 8.08% | viability, T/C (second compound 3.16 µM, first compound 0.00316 µM) 90.5% | viability, T/C (second compound 3.16 µM, first compound 0.01 µM) 89.7% | viability, T/C [17] 42.2% | viability, T/C [18] 19.3% | viability, T/C [19] 12.6% | viability, T/C [20] 8.98% | viability, T/C (second compound 10 µM, first compound 0.00316 µM) 98.6% | viability, T/C (second compound 10 µM, first compound 0.01 µM) 75.3% | viability, T/C [21] 38.9% | viability, T/C [22] 22.6% | viability, T/C [23] 15.7% | viability, T/C [24] 8.14%
0.0198 µM: IC50 (second compound 0.0316 µM)

O=C(Nc1ccc(O)c(NS(=O)(=O)c2ccc(F)cc2)c1)c1ccc(-c2ccccc2)cc1 + Cc1cccc(N(C)C(=O)C2C(O)CCN2c2nc(C)cc(C(F)(F)F)c2C#N)c1
> 10 µM: IC50 (second compound 0.0316 µM) | IC50 (second compound 0.1 µM) | IC50 (second compound 0.316 µM) | IC50 (second compound 1 µM) | IC50 (second compound 3.16 µM) | IC50 (second compound 10 µM)
inactive: viability, T/C [1] 100% | viability, T/C [2] 103% | viability, T/C [3] 109% | viability, T/C [4] 107% | viability, T/C [25] 100% | viability, T/C [26] 50.2% | viability, T/C [5] 103% | viability, T/C [6] 92.1% | viability, T/C [7] 93.5% | viability, T/C [8] 87.8% | viability, T/C [27] 106% | viability, T/C [28] 60.6% | viability, T/C [9] 102% | viability, T/C [10] 98.1% | viability, T/C [11] 103% | viability, T/C [12] 80.2% | viability, T/C [29] 83.2% | viability, T/C [30] 75.2% | viability, T/C [13] 98.5% | viability, T/C [14] 90.9% | viability, T/C [15] 92.6% | viability, T/C [16] 86.9% | viability, T/C [31] 84.1% | viability, T/C [32] 65.2% | viability, T/C [17] 96% | viability, T/C [18] 92.3% | viability, T/C [19] 89.5% | viability, T/C [20] 99% | viability, T/C [33] 90.2% | viability, T/C [34] 52.1% | viability, T/C [21] 92.3% | viability, T/C [22] 91.3% | viability, T/C [23] 101% | viability, T/C [24] 87.3% | viability, T/C [35] 79.6% | viability, T/C [36] 51.2%

COc1ccc([C@@H](O)c2cc(-c3ncnc4cc(N5CCOCC5)ccc34)c(F)cc2Cl)nn1 + Nc1ccc(C#CCN(C(=O)Cc2ncc(C(F)(F)F)cc2C(F)(F)F)c2ccc(F)cc2)nn1
6.82 µM: IC50 (second compound 0.0316 µM)
inactive: viability, T/C [1] 103% | viability, T/C [2] 118% | viability, T/C [3] 96.6% | viability, T/C [4] 87.6% | viability, T/C [25] 65.1% | viability, T/C [26] 42.5% | viability, T/C [5] 109% | viability, T/C [6] 91.3% | viability, T/C [7] 91.1% | viability, T/C [8] 83.9% | viability, T/C [27] 74.1% | viability, T/C [28] 39% | viability, T/C [9] 122% | viability, T/C [10] 95.3% | viability, T/C [11] 95.5% | viability, T/C [12] 83.6% | viability, T/C [29] 82.5% | viability, T/C [30] 44.5% | viability, T/C [13] 103% | viability, T/C [14] 96.8% | viability, T/C [15] 91.9% | viability, T/C [16] 87.2% | viability, T/C [31] 69.8% | viability, T/C [32] 45.3% | viability, T/C [17] 104% | viability, T/C [18] 102% | viability, T/C [19] 110% | viability, T/C [20] 97.6% | viability, T/C [33] 81.7% | viability, T/C [34] 38.8% | viability, T/C [21] 102% | viability, T/C [22] 104% | viability, T/C [23] 103% | viability, T/C [24] 91.6% | viability, T/C [35] 63.9% | viability, T/C [36] 43.3%
7.39 µM: IC50 (second compound 3.16 µM)
6.9 µM: IC50 (second compound 0.1 µM)
6.86 µM: IC50 (second compound 10 µM)
> 10 µM: IC50 (second compound 0.316 µM)
8.15 µM: IC50 (second compound 1 µM)

C#Cc1c(F)ccc2cc(O)cc(-c3ncc4c(N5CC6CCC(C5)N6)nc(OCC56CCCN5CC(F)C6)nc4c3F)c12 (stereo not drawn) + Cc1cccc(N(C)C(=O)C2C(O)CCN2c2nc(C)cc(C(F)(F)F)c2C#N)c1
inactive: viability, T/C [1] 104% | viability, T/C [2] 105% | viability, T/C [3] 104% | viability, T/C [4] 97.9% | viability, T/C [25] 88.6% | viability, T/C [26] 90.6% | viability, T/C [5] 101% | viability, T/C [6] 112% | viability, T/C [7] 101% | viability, T/C [8] 95.5% | viability, T/C [27] 96% | viability, T/C [28] 92.6% | viability, T/C [9] 108% | viability, T/C [10] 106% | viability, T/C [11] 96.9% | viability, T/C [12] 85.3% | viability, T/C [29] 93.2% | viability, T/C [30] 84.1% | viability, T/C [13] 111% | viability, T/C [14] 101% | viability, T/C [15] 94.9% | viability, T/C [16] 93.4% | viability, T/C [31] 89.8% | viability, T/C [32] 85.5% | viability, T/C [17] 99.7% | viability, T/C [18] 98.2% | viability, T/C [19] 96.8% | viability, T/C [20] 74.9% | viability, T/C [33] 95.8% | viability, T/C [34] 98.2% | viability, T/C [21] 107% | viability, T/C [22] 75% | viability, T/C [23] 99.8% | viability, T/C [24] 90% | viability, T/C [35] 88.6% | viability, T/C [36] 78.3%
> 10 µM: IC50 (second compound 0.0316 µM) | IC50 (second compound 0.1 µM) | IC50 (second compound 0.316 µM) | IC50 (second compound 1 µM) | IC50 (second compound 3.16 µM) | IC50 (second compound 10 µM)
